For 5 compounds, IC50 results are on record in patent US20060009493A1, “Indolinone hydrazides as c-Met inhibitors” (Sugen, Inc., priority 2003, published 2006).

The structures appear in SMILES notation.

T1 sequence (P08581 1078-1345 limits assumed): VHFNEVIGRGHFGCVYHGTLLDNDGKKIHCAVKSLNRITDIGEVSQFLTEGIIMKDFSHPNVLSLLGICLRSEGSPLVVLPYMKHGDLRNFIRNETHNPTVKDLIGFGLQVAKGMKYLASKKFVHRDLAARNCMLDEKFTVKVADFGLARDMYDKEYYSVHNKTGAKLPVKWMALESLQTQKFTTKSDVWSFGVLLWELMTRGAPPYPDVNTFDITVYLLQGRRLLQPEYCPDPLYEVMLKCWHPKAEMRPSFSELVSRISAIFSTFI

This experiment has as its target T1, GST fusion protein containing the Met kinase domain (Homo sapiens, UniProt P08581).
T1 construct: Purified GST fusion protein containing the Met kinase domain, Sugen, Inc
Put plainly: MET Transphosphorylation Assay (ELISA, poly(Glu,Tyr) 4:1 substrate). The format is biochemical. To be noted: met transphosphorylation of poly(glutamic acid:tyrosine 4:1) substrate; two values in a cell separated by '/'. Put shortly:
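Poly(Glu-Tyr)-coated wells received the GST-Met kinase domain (10 ng/well) with compound in DMSO for 15 minutes. The reaction was started with ATP/MnCl2 in HEPES pH 7.5 buffer with vanadate, run 5 minutes, and stopped with EDTA. Phosphotyrosine was detected by anti-pTyr antibody, HRP secondary and ABTS/H2O2.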
On the technique in general: An ELISA detects its analyte on a solid surface through an enzyme-linked reagent.
As a reminder, the IC50 is the point on the concentration scale where inhibition reaches its midpoint. Read a low IC50 as greater potency in that assay. Take `O=C(Cc1ccc(O)cc1)N/N=C1\C(=O)Nc2ccccc21` [II-23, (4-Hydroxy-phenyl)-acetic acid [(3E)-2-oxo-1,2-dihydro-indol-3-ylidene]-hydrazide]: the IC50 came to 0.52 µM. Take `Cc1cn(CC(=O)N/N=C2\C(=O)Nc3ccccc32)c(=O)[nH]c1=O` [II-73, (5-Methyl-2,4-dioxo-3,4-dihydro-2H-pyrimidin-1-yl)-acetic acid [(3Z)-2-oxo-1,2-dihydro-indol-3-ylidene]-hydrazide]: the IC50 was above 20 µM. Take `COc1ccc(CC(=O)N/N=C2\C(=O)Nc3c(Cl)ccc(Cl)c32)cc1C#N` [II-106, (3-Cyano-4-methoxy-phenyl)-acetic acid [(3Z)-4,7-dichloro-2-oxo-1,2-dihydro-indol-3-ylidene]-hydrazide]: the concentration for half-maximal inhibition (IC50) was above 20 µM.

In the case of `CC(C(=O)N/N=C1\C(=O)Nc2ccc(NC(=O)CN3CCCC3)cc21)c1ccc(F)cc1` (centres unmarked) [Example I-55, N-((3Z)-3-{[2-(4-Fluoro-phenyl)-propionyl]-hydrazono}-2-oxo-2,3-dihydro-1H-indol-5-yl)-2-pyrrolidin-1-yl-acetamide], half-maximal inhibition (IC50) required 6.16 µM. This counts as single-digit micromolar. For `O=C(Cc1ccc(Cl)cc1)N/N=C1\C(=O)Nc2ccccc21` [II-4, (4-Chloro-phenyl)-acetic acid [(3Z)-2-oxo-1,2-dihydro-indol-3-ylidene]-hydrazide] the value was 5.87 µM.
